Experimental findings from patent US11420935B2, “Bicyclic compounds” (Vivace Therapeutics, Inc., priority 2019, dated 2022) are described below.

A word on the IC50: it is the concentration at which inhibition is half-maximal.

The experiment concerns 8×TBD luciferase reporter (YAP) in HEK293T cells. Put plainly: YAP Reporter Assay (8×TBD firefly luciferase reporter). The class given is cell-based. The conditions noted are these: Homo sapiens, HEK-293T; HEK293T cells stably transfected with 8×TBD luciferase reporter and pRLTK; 24-hr incubation; firefly luciferase activity; read-out: Firefly Luciferase IC50. The essentials: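 Stably transfected HEK293T cells (8×TBD firefly luciferase plus TK-renilla) were dosed with 10-point 1:3 dilutions from 3 μM final, quadruplicates, for 24 h at 37 °C. Dual-Glo read firefly and renilla luminescence; IC50 and maximal inhibition reported separately for each.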
For orientation: Reporter assays use an easily measured gene product as a stand-in for the process of interest.
As to `CCNCC[C@@H](C)NC(=O)c1ccc2c(Oc3ccc(C(F)(F)F)cc3)cccc2c1` [Compound 146, (R)-N-(4-(ethylamino)butan-2-yl)-5-(4-(trifluoromethyl)phenoxy)-2-naphthamide], the IC50 was < 100 nM.
Next, `C[C@H](CCNCCO)NC(=O)c1ccc2c(Oc3ccc(C(F)(F)F)cc3)cccc2c1` [Compound 147, (R)-N-(4-((2-hydroxyethyl)amino)butan-2-yl)-5-(4-(trifluoromethyl)phenoxy)-2-naphthamide]: < 100 nM; `C[C@H](CCNCCF)NC(=O)c1ccc2c(Oc3ccc(C(F)(F)F)cc3)cccc2c1` [Compound 148, (R)-N-(4-((2-fluoroethyl)amino)butan-2-yl)-5-(4-(trifluoromethyl)phenoxy)-2-naphthamide]: < 100 nM; `C[C@H](CCNCC(F)F)NC(=O)c1ccc2c(Oc3ccc(C(F)(F)F)cc3)cccc2c1` [Compound 149, (R)-N-(4-((2,2-difluoroethyl)amino)butan-2-yl)-5-(4-(trifluoromethyl)phenoxy)-2-naphthamide]: < 100 nM.
Next, `C[C@@H](NC(=O)c1ccc2c(Oc3ccc(C(F)(F)F)cc3)cccc2c1)C1CCNCC1` [Compound 150, (R)-N-(1-(piperidin-4-yl)ethyl)-5-(4-(trifluoromethyl)phenoxy)-2-naphthamide]: < 100 nM; `C[C@H](NC(=O)c1ccc2c(Oc3ccc(C(F)(F)F)cc3)cccc2c1)C1(F)CNC1` [Compound 151, (S)-N-(1-(3-fluoroazetidin-3-yl)ethyl)-5-(4-(trifluoromethyl)phenoxy)-2-naphthamide]: 1000 to 3000 nM; `C[C@@H](NC(=O)c1ccc2c(Oc3ccc(C(F)(F)F)cc3)cccc2c1)C1(F)CNC1` [Compound 152, (R)-N-(1-(3-fluoroazetidin-3-yl)ethyl)-5-(4-(trifluoromethyl)phenoxy)-2-naphthamide]: 100 to 1000 nM.
Next, `C[C@@H](NC(=O)c1ccc2c(Oc3ccc(C(F)(F)F)cc3)cccc2c1)C1CCN(CCO)CC1` [Compound 153, (R)-N-(1-(1-(2-hydroxyethyl)piperidin-4-yl)ethyl)-5-(4-(trifluoromethyl)phenoxy)-2-naphthamide]: 100 to 1000 nM; `C[C@@H](NC(=O)c1ccc2c(Oc3ccc(C(F)(F)F)cc3)cccc2c1)C1CCN(CCF)CC1` [Compound 154, (R)-N-(1-(1-(2-fluoroethyl)piperidin-4-yl)ethyl)-5-(4-(trifluoromethyl)phenoxy)-2-naphthamide]: 100 to 1000 nM.
On to `CCN1CCC([C@@H](C)NC(=O)c2ccc3c(Oc4ccc(C(F)(F)F)cc4)cccc3c2)CC1` [Compound 155, (R)-N-(1-(1-ethylpiperidin-4-yl)ethyl)-5-(4-(trifluoromethyl)phenoxy)-2-naphthamide], for which the IC50 lay within 100 to 1000 nM.
For `CC(C)N1CCC([C@@H](C)NC(=O)c2ccc3c(Oc4ccc(C(F)(F)F)cc4)cccc3c2)CC1` [Compound 156, (R)-N-(1-(1-isopropylpiperidin-4-yl)ethyl)-5-(4-(trifluoromethyl)phenoxy)-2-naphthamide], the IC50 fell in the range of 100 to 1000 nM.
Next, `C[C@@H](NC(=O)c1ccc2c(Oc3ccc(C(F)(F)F)cc3)cccc2c1)C1CCN(C)CC1` [Compound 157, (R)-N-(1-(1-methylpiperidin-4-yl)ethyl)-5-(4-(trifluoromethyl)phenoxy)-2-naphthamide]: < 100 nM.
Next, `C[C@@H](NC(=O)c1ccc2c(Oc3ccc(C(F)(F)F)cc3)cccc2c1)C1CCN(CC(F)F)CC1` [Compound 162, (R)-N-(1-(1-(2,2-difluoroethyl)piperidin-4-yl)ethyl)-5-(4-(trifluoromethyl)phenoxy)-2-naphthamide]: 100 to 1000 nM.
